Assay results: US9096646B2, “CXCR4 receptor compounds” (priority 2008, dated 2015)
Several values for one entry are separate records, joined by “and”; a condition that tells them apart may be missing. Identical values can stand only once. Peptide text beside a SMILES is read from it. * marks the point of attachment. Palmitoyl = CCCCCCCCCCCCCCCC(=O)*

What was measured:
[1] = biological target: T1, CXCR4 (Homo sapiens, UniProt P61073); assay: Chemotaxis assay using SUP B-15 cells; format: cell-based; design: A similar procedure was followed for chemotaxis using SUP B-15 cells; endogenous in cells; host or cells: SUP B-15 cells; conditions: for AUC (% of vehicle) / Max (% of vehicle) / Peak Test Comp.: Table 19, i2 loop, SUPB-15 cells, conc 1.0 uM; for activity at 1 µM: SUP-B15, Table 18, i1 loop, SUP B-15 cells, drug conc 1.0 uM
Excerpt: Chemotaxis assays were utilized to determine the effect of compound on the directed migration of cells in response to chemokine. Cells that express a receptor of interest were placed in the upper chamber of a Transwell chemotaxis plate (Corning) and allowed to migrate through a polycarbonate membrane to a lower chamber containing the appropriate receptor-specific ligand. To test for antagonist or potentiating activity, cells were mixed with the desired concentration of compound prior to addition to the upper chamber. Conversely, agonist activity was determined by adding compound in the bottom chamber only without endogenous chemokine. The effect of compound is quantified by several parameters, including the extent of maximum response, the shift of agonist dose-response curves, and the area under the curve.
To measure the CXCR4-dependent migration of cells, the appropriate concentration of CXCL12 (SDF1a) or test compound was diluted in phenol red-free RMPI-1640/20 mM HEPES/0.5% BSA buffer and placed in the bottom chamber of a transwell apparatus. CCRF-CEM cells, a human T-cell ALL line that endogenously expresses CXCR4, were washed twice in buffer and resuspended at 133,000 cells/ml. A 75 μl sample of this suspension is mixed with the test compound of interest and placed in the upper chamber of a 5-micron transwell apparatus.
To initiate cell migration, the assembled transwell plate was placed in a 37° C., […] incubator for a specified time interval, typically between 30 and 120 minutes. After incubation, the unit was disassembled and the lower chamber placed at −80° C. overnight to facilitate lysis of cells. To quantify migrated cells, plates were thawed at 37° C. in a humidified chamber, and then a sample volume was removed from each well and mixed with an equal volume of CyQuant (Invitrogen) working solution in opaque plates. The fluorescence intensity of each well represents the DNA content and is directly proportional to cell number. Each sample was typically run in duplicate or triplicate and each plate included two separate negative controls. The plate background control, which included no cells in the upper chamber, was subtracted from all values. The negative control had no agonist added in the lower chamber, and served to establish the baseline for random migration. A similar procedure was followed for chemotaxis using SUP B-15 cells.

[2] = biological target: T1, CXCR4; assay: Chemotaxis assay, effect on SDF1-a (CXCL12) induced migration of CCRF-CEM cells; format: cell-based; design: a human T-cell ALL line that endogenously expresses CXCR4; endogenous in cells; host or cells: CCRF-CEM (human T-cell ALL line); conditions: CCRF-CEM, Table 18, i1 loop, CEM cells, drug conc 1.0 uM
Description: To initiate cell migration, the assembled transwell plate was placed in a 37° C., 0.5% CO2 incubator for a specified time interval, typically between 30 and 120 minutes. After incubation, the unit was disassembled and the lower chamber placed at −80° C. overnight to facilitate lysis of cells. To quantify migrated cells, plates were thawed at 37° C. in a humidified chamber, and then a sample volume was removed from each well and mixed with an equal volume of CyQuant (Invitrogen) working solution in opaque plates. The fluorescence intensity of each well represents the DNA content and is directly proportional to cell number. […] The plate background control, which included no cells in the upper chamber, was subtracted from all values.

T1 sequence (P61073 whole entry): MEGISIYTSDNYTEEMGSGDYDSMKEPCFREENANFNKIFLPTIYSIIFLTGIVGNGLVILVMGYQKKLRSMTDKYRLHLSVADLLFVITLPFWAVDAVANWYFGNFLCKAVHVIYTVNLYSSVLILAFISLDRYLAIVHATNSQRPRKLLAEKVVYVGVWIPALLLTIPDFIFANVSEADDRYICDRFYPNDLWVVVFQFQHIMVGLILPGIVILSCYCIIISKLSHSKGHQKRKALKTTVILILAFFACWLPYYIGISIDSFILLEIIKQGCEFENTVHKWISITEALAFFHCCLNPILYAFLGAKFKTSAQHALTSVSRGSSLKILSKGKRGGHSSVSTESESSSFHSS

Compound | activity at 1 µM ([1]; read-out: AUC (% of)) [%] | activity at 1 µM ([1]; read-out: Max (% of)) [%] | activity at 1 µM ([2]; read-out: AUC (% of)) [%] | activity at 1 µM ([2]; read-out: Max (% of)) [%] | AUC (% of vehicle) [1] | Max (% of vehicle) [1] | Peak Test Comp. [1] [nM]
74 (DRYLAIVHATNSQRPRKLL) [Compound 74] | – | – | – | – | 90.39 % of vehicle and 77.13 % of vehicle | 91.29 % of vehicle and 75.81 % of vehicle | 5
78 (Palmitoyl-VHATNSQRPRKLLA-NH2; not fully specified) [Compound 78] | – | – | – | – | 71.85 % of vehicle | 72.31 % of vehicle | 5
79 (Palmitoyl-HATNSQRPRKL-NH2; not fully specified) [Compound 79] | – | – | – | – | 109.36 % of vehicle | 109.68 % of vehicle | 5
80 (Palmitoyl-HATNSQRPRKLLA-NH2; not fully specified) [Compound 80] | – | – | – | – | 102.2 % of vehicle | 69.02 % of vehicle | 5
81 (Palmitoyl-HATNSQRPRKLLAE-NH2; not fully specified) [Compound 81] | – | – | – | – | 79.85 % of vehicle | 76.46 % of vehicle | 5
82 (Palmitoyl-HATNSQRPRKLLAEK-NH2; not fully specified) [Compound 82] | – | – | – | – | 124.56 % of vehicle | 126.31 % of vehicle | 1
83 (Palmitoyl-HATNSQRPRKLLAEKV-NH2; not fully specified) [Compound 83] | – | – | – | – | 126.36 % of vehicle | 110.06 % of vehicle | 5
CCCCCCCCCCCCCCCC(=O)N[C@H](C(=O)N[C@@H](CCSC)C(=O)NCC(=O)N[C@@H](Cc1ccc(O)cc1)C(=O)N[C@@H](CCC(N)=O)C(=O)N[C@@H](CCCCN)C(=O)N[C@@H](CCCCN)C(=O)N[C@@H](CC(C)C)C(=O)N[C@@H](CCCNC(=N)N)C(=O)N[C@@H](CO)C(=O)N[C@@H](CCSC)C(=O)N[C@H](C(=O)N[C@@H](CC(=O)O)C(N)=O)[C@@H](C)O)C(C)C [Compound 35] (Palmitoyl-VMGYQKKLRSMTD-NH2) | 31.7 | 49.3 | 57.9 | 57 | – | – | –
CCCCCCCCCCCCCCCC(=O)N[C@@H](CCSC)C(=O)NCC(=O)N[C@@H](Cc1ccc(O)cc1)C(=O)N[C@@H](CCC(N)=O)C(=O)N[C@@H](CCCCN)C(=O)N[C@@H](CCCCN)C(=O)N[C@@H](CC(C)C)C(=O)N[C@@H](CCCNC(=N)N)C(=O)N[C@@H](CO)C(=O)N[C@@H](CCSC)C(=O)N[C@H](C(=O)N[C@@H](CC(=O)O)C(=O)N[C@@H](CCCCN)C(=O)N[C@@H](Cc1ccc(O)cc1)C(N)=O)[C@@H](C)O [Compound 37] (Palmitoyl-MGYQKKLRSMTDKY-NH2) | 63.5 | 91.1 | 92.3 | 97.8 | – | – | –
CCCCCCCCCCCCCCCC(=O)N[C@@H](Cc1ccc(O)cc1)C(=O)N[C@@H](CCC(N)=O)C(=O)N[C@@H](CCCCN)C(=O)N[C@@H](CCCCN)C(=O)N[C@@H](CC(C)C)C(=O)N[C@@H](CCCNC(=N)N)C(=O)N[C@@H](CO)C(=O)N[C@@H](CCSC)C(=O)N[C@H](C(=O)N[C@@H](CC(=O)O)C(=O)N[C@@H](CCCCN)C(=O)N[C@@H](Cc1ccc(O)cc1)C(=O)N[C@@H](CCCNC(=N)N)C(=O)N[C@@H](CC(C)C)C(=O)N[C@@H](Cc1cnc[nH]1)C(=O)N[C@@H](CC(C)C)C(=O)N[C@@H](CO)C(=O)N[C@H](C(N)=O)C(C)C)[C@@H](C)O [Compound 40] (Palmitoyl-YQKKLRSMTDKYRLHLSV-NH2) | 71.9 | 71.2 | – | – | – | – | –

The next lines start with results.

activity at 1 µM ([1]; read-out: AUC (% of)) [%] | activity at 1 µM ([1]; read-out: Max (% of)) [%] | activity at 1 µM ([2]; read-out: AUC (% of)) [%] | activity at 1 µM ([2]; read-out: Max (% of)) [%] | Compound | AUC (% of vehicle) [1] | Max (% of vehicle) [1] | Peak Test Comp. [1] [nM]
32.4 | 49.6 | – | – | CCCCCCCCCCCCCCCC(=O)N[C@@H](CCSC)C(=O)NCC(=O)N[C@@H](Cc1ccc(O)cc1)C(=O)N[C@@H](CCC(N)=O)C(=O)N[C@@H](CCCCN)C(=O)N[C@@H](CCCCN)C(=O)N[C@@H](CC(C)C)C(=O)N[C@@H](CCCNC(=N)N)C(=O)N[C@@H](CO)C(=O)N[C@@H](CCSC)C(=O)N[C@H](C(=O)N[C@@H](CC(=O)O)C(=O)N[C@@H](CCCCN)C(=O)N[C@@H](Cc1ccc(O)cc1)C(=O)N[C@@H](CCCNC(=N)N)C(=O)N[C@@H](CC(C)C)C(N)=O)[C@@H](C)O [Compound 38, Pal-MGYQKKLRSMTDKYRL-amide] (Palmitoyl-MGYQKKLRSMTDKYRL-NH2) | – | – | –
51.7 | 41.7 | 66.7 | 76.8 | CCCCCCCCCCCCCCCC(=O)N[C@@H](CCCCN)C(=O)N[C@@H](CCCCN)C(=O)N[C@@H](CC(C)C)C(=O)N[C@@H](CCCNC(=N)N)C(=O)N[C@@H](CO)C(=O)N[C@@H](CCSC)C(=O)N[C@H](C(=O)N[C@@H](CC(=O)O)C(=O)N[C@@H](CCCCN)C(=O)N[C@@H](Cc1ccc(O)cc1)C(=O)N[C@@H](CCCNC(=N)N)C(=O)N[C@@H](CC(C)C)C(=O)N[C@@H](Cc1cnc[nH]1)C(=O)N[C@@H](CC(C)C)C(=O)N[C@@H](CO)C(=O)N[C@H](C(N)=O)C(C)C)[C@@H](C)O [Compound 41] (Palmitoyl-KKLRSMTDKYRLHLSV-NH2) | – | – | –
43.8 | 33.5 | – | – | CCCCCCCCCCCCCCCC(=O)N[C@@H](CCCCN)C(=O)N[C@@H](CCCCN)C(=O)N[C@@H](CC(C)C)C(=O)N[C@@H](CCCNC(=N)N)C(=O)N[C@@H](CO)C(=O)N[C@@H](CCSC)C(=O)N[C@H](C(=O)N[C@@H](CC(=O)O)C(=O)N[C@@H](CCCCN)C(=O)N[C@@H](Cc1ccc(O)cc1)C(=O)N[C@@H](CCCNC(=N)N)C(=O)N[C@@H](CC(C)C)C(=O)N[C@@H](Cc1cnc[nH]1)C(=O)N[C@@H](CC(C)C)C(N)=O)[C@@H](C)O [Compound 42] (Palmitoyl-KKLRSMTDKYRLHL-NH2) | – | – | –
25.9 | 31.5 | – | – | CCCCCCCCCCCCCCCC(=O)N[C@@H](CCCCN)C(=O)N[C@@H](CCCCN)C(=O)N[C@@H](CC(C)C)C(=O)N[C@@H](CCCNC(=N)N)C(=O)N[C@@H](CO)C(=O)N[C@@H](CCSC)C(=O)N[C@H](C(=O)N[C@@H](CC(=O)O)C(=O)N[C@@H](CCCCN)C(=O)N[C@@H](Cc1ccc(O)cc1)C(=O)N[C@@H](CCCNC(=N)N)C(=O)N[C@@H](CC(C)C)C(N)=O)[C@@H](C)O [Compound 44, Pal-KKLRSMTDKYRL-amide] (Palmitoyl-KKLRSMTDKYRL-NH2) | – | – | –
178 | 194 | – | – | CCCCCCCCCCCCCCCC(=O)N[C@@H](CCCCN)C(=O)N[C@@H](CCCCN)C(=O)N[C@@H](CC(C)C)C(=O)N[C@@H](CCCNC(=N)N)C(=O)N[C@@H](CO)C(=O)N[C@@H](CCSC)C(=O)N[C@H](C(=O)N[C@@H](CC(=O)O)C(=O)N[C@@H](CCCCN)C(=O)N[C@@H](Cc1ccc(O)cc1)C(=O)N[C@@H](CCCNC(=N)N)C(N)=O)[C@@H](C)O [Compound 45] (Palmitoyl-KKLRSMTDKYR-NH2) | – | – | –
